Reference: patent US20210236668A1, “COMPOSITIONS FOR RADIOTHERAPY AND USES THEREOF” (The Trustees of Columbia University in the City of New York, priority 2018, published 2021)
Where “and” joins values, the source holds several entries; their conditions need not be identical. Identical values can stand only once. Counter-ions that a name gives are not always drawn. Like-named read-outs stand apart in the source and are kept apart here.

What was measured:
NCI-2052H cells = test: Cytotoxicity assay (MTS, CellTiter 96 AQueous One, 490 nm), 72 hrs; assay type: cell-based; settings: for Average reading: cells + drug: absorbance 490 nm
Protocol: Read absorbance (MTS assay) and calculate cells survival rate. Compare survival rate
1,500,000 cells/440,000=3.4 ml of cells/media mix need to take from flask and transfer to 26.6 ml media. In 50 ml Falcon tube, combine 26.6 ml fresh medium and 3.4 ml cells. Gently mix.
1. Centrifuge tubes at 3200 rpm for 3 min. Take out supernatant.
6. Check the plates and start incubation for 72 hrs at 37° C./5% CO2.
5. Incubate plate 1 hr at 37° C., 5% CO2.
Compare survival rate of cells.
1. […] Protocol how to do that see in previous cytotoxicity experiment.
1. Incubate plate for 72 hrs at 37° C., 5% CO2.
6. Incubate plate 1 hr at 37° C., 5% CO2.

NCI-28H cells = settings: for % survival from untreated cells: cells + drug / Average absorbance reading: cells + drug / % survival cells after exposure to drug for 72 hrs (cells + drug only) / Average absorbance readings: cells + drug / Average reading: cells + drug: NCI-28H
[1] = Talc bound to hot/cold Avidin, 48 hrs wash in PBS containing 10% FBS, absorbance 450 nm; assay type: physicochemical; settings: 48 hrs in PBS containing 10% FBS
Protocol: Purpose: To check how strong the conjugate of hot/cold Avidin to Talc is. […] Absorbance will be checked twice—once before washing with PBS containing 10% FBS and after 48 hours, washing will be done.
14. […] Two identical microplates need to be set up, labeling them as: plate #1 and plate #2. Design of the plate:
3. Wash both plates 3× with 300 μL PBS.
5. […] Mix constantly, cover plate with Aluminum foil.
6. Add 100 μL of TMB to samples in plate #1.
9. Read absorbance at 450 nm using the plate reader.
3. Collect 100 μL supernatant from samples except native controls and load on same plate.
4. Wash plate except supernatant samples 3× with 300 μL PBS.
6. Add 100 μL of TMB to all samples in plate #2.

## COc1cccc2c1C(=O)c1c(O)c3c(c(O)c1C2=O)C[C@@](O)(C(=O)CO)C[C@@H]3O[C@H]1C[C@H](N)[C@H](O)[C@H](C)O1 [DOX, Doxorubicin Hydrochloride]
NCI-2052H cells; doxorubicin 400 nM
  % survival from untreated cells: 57.76%
NCI-2052H cells; doxorubicin 2000 nM
  % survival from untreated cells: 25.59%
NCI-2052H cells; doxorubicin 10,000 nM
  % survival from untreated cells: 18.91%
NCI-28H cells; 72 hrs, DOX 0.000064 μM
  AVERAGE: cells + DOX (absorbance): 1.18
NCI-28H cells; 72 hrs, DOX 0.2 μM
  AVERAGE: cells + DOX (absorbance): 0.89
NCI-28H cells; 72 hrs, DOX 1 μM
  AVERAGE: cells + DOX (absorbance): 0.67
NCI-28H cells; 72 hrs, DOX 5 μM
  AVERAGE: cells + DOX (absorbance): 0.63
NCI-28H cells; 72 hrs, Dox 200 nM
  % survival from untreated by DOX cells: 65.0%
NCI-28H cells; cells + 125 nM DOX
  % survival NCI-28H cells after different treatment (compare to untreated cells): 70%

## Avidin: Avidin from egg white (Sigma A9275), 66 kDa biotin-binding protein; unlabeled = cold Avidin
[1]
  binding of Avidin to talc at 48 hours: unchanged

## Nc1ccn([C@@H]2O[C@H](CO)[C@@H](O)C2(F)F)c(=O)n1 [gemcitabine, Gemcitabine]
NCI-28H cells
  cytotoxicity to NCI-28H cells, comparison: clear cytotoxic effect
NCI-28H cells; gemcitabine 0.0026 μM
  % survival from untreated cells: cells + drug: 114.61%
  Average absorbance reading: cells + drug: 2.034
NCI-28H cells; gemcitabine 0.013 μM
  % survival from untreated cells: cells + drug: 107.85%
  Average absorbance reading: cells + drug: 1.914
NCI-28H cells; gemcitabine 0.064 μM
  % survival from untreated cells: cells + drug: 80.60%
  Average absorbance reading: cells + drug: 1.43
NCI-28H cells; gemcitabine 8 μM
  % survival from untreated cells: cells + drug: 56.58%
  Average absorbance reading: cells + drug: 1.004
NCI-28H cells; gemcitabine 40 μM
  % survival from untreated cells: cells + drug: 60.09%
  Average absorbance reading: cells + drug: 1.0663
NCI-28H cells; gemcitabine 200 μM
  % survival from untreated cells: cells + drug: 52.70%
  Average absorbance reading: cells + drug: 0.9352

## N.N.[Cl][Pt][Cl] [Cisplatin]
NCI-28H cells
  cytotoxicity to NCI-28H cells, comparison: no noticeable difference in toxicity
NCI-28H cells; 72 hrs, Cisplatin 20 μM
  Average reading: cells + cisplatin: 0.48
NCI-28H cells; 72 hrs, Cisplatin 100 μM
  Average reading: cells + cisplatin: 0.59

## CO[C@@]12[C@H](COC(N)=O)C3=C(C(=O)C(C)=C(N)C3=O)N1C[C@@H]1N[C@@H]12 [mitomycin, Mitomycin]
NCI-2052H cells; mitomycin 0.013 μM
  Average reading: cells + drug: 1.284
NCI-2052H cells; mitomycin 0.064 μM
  Average reading: cells + drug: 1.199
NCI-2052H cells; mitomycin 8 μM
  Average reading: cells + drug: 0.4142
NCI-2052H cells; mitomycin 40 μM
  Average reading: cells + drug: 0.2305
NCI-2052H cells; mitomycin 200 μM
  Average reading: cells + drug: 0.2098
NCI-2052H cells; mitomycin .0026 μM
  Average reading: cells + drug: 1.424
NCI-28H cells; mitomycin 0.0026 μM, 72 hrs
  % survival cells after exposure to drug for 72 hrs (cells + drug only): 106.12%
NCI-28H cells; mitomycin 0.0026 μM
  Average absorbance readings: cells + drug: 2.032
NCI-28H cells; mitomycin 0.013 μM, 72 hrs
  % survival cells after exposure to drug for 72 hrs (cells + drug only): 102.65%
NCI-28H cells; mitomycin 0.013 μM
  Average absorbance readings: cells + drug: 1.965
NCI-28H cells; mitomycin 0.064 μM, 72 hrs
  % survival cells after exposure to drug for 72 hrs (cells + drug only): 98.03%
NCI-28H cells; mitomycin 0.064 μM
  Average absorbance readings: cells + drug: 1.8766
NCI-28H cells; mitomycin 8 μM, 72 hrs
  % survival cells after exposure to drug for 72 hrs (cells + drug only): 18.03%
NCI-28H cells; mitomycin 8 μM
  Average absorbance readings: cells + drug: 0.3451
NCI-28H cells; mitomycin 40 μM, 72 hrs
  % survival cells after exposure to drug for 72 hrs (cells + drug only): 27.16%
NCI-28H cells; mitomycin 40 μM
  Average absorbance readings: cells + drug: 0.52
NCI-28H cells; mitomycin 200 μM, 72 hrs
  % survival cells after exposure to drug for 72 hrs (cells + drug only): 12.87%
NCI-28H cells; mitomycin 200 μM
  Average absorbance readings: cells + drug: 0.2464

## CC(=O)O[C@H]1C(=O)[C@@]2(C)[C@H]([C@H](OC(=O)c3ccccc3)[C@]3(O)C[C@H](OC(=O)[C@H](O)[C@@H](NC(=O)c4ccccc4)c4ccccc4)C(C)=C1C3(C)C)[C@]1(OC(C)=O)CO[C@@H]1C[C@@H]2O [Paclitaxel]
NCI-2052H cells; paclitaxel 0.256 nM
  Average reading: cells + drug: 1.4273
NCI-2052H cells; paclitaxel 6.4 nM
  Average reading: cells + drug: 1.54
NCI-2052H cells; paclitaxel 32 nM
  Average reading: cells + drug: 0.5818
NCI-2052H cells; paclitaxel 160 nM
  Average reading: cells + drug: 0.4361
NCI-2052H cells; paclitaxel 800 nM
  Average reading: cells + drug: 0.4326
NCI-2052H cells; paclitaxel 4000 nM
  Average reading: cells + drug: 0.553
NCI-2052H cells; paclitaxel 20,000 nM
  Average reading: cells + drug: 0.1647
NCI-28H cells; Paclitaxel 80 nM, absorbance 490 nm
  Average readings: cells + drug: 1.10

## N.N.O=C([O-])C1(C(=O)[O-])CCC1.[Pt+2] [Carboplatin]
NCI-28H cells; carboplatin 0.006 μM
  % survival from untreated cells: cells + drug: 90.84% and 94.28%
NCI-28H cells; carboplatin 0.006 μM, absorbance 490 nm
  Average reading: cells + drug: 1.504
NCI-28H cells; carboplatin 0.8 μM
  % survival from untreated cells: cells + drug: 85.98% and 87.53%
NCI-28H cells; carboplatin 0.8 μM, absorbance 490 nm
  Average reading: cells + drug: 1.4238
NCI-28H cells; carboplatin 4 μM
  % survival from untreated cells: cells + drug: 96.93% and 93.62%
NCI-28H cells; carboplatin 4 μM, absorbance 490 nm
  Average reading: cells + drug: 1.605
NCI-28H cells; carboplatin 20 μM
  % survival from untreated cells: cells + drug: 104.81% and 99.20%
NCI-28H cells; carboplatin 20 μM, absorbance 490 nm
  Average reading: cells + drug: 1.7355
NCI-28H cells; carboplatin 100 μM
  % survival from untreated cells: cells + drug: 83.82% and 79.53%
NCI-28H cells; carboplatin 100 μM, absorbance 490 nm
  Average reading: cells + drug: 1.388
NCI-28H cells; carboplatin 500 μM
  % survival from untreated cells: cells + drug: 37.38% and 35.14%
NCI-28H cells; carboplatin 500 μM, absorbance 490 nm
  Average reading: cells + drug: 0.6189
